Experimental data from patent US10052320B2, “Substituted quinoxalines as FGFR kinase inhibitors” (ASTEX THERAPEUTICS LIMITED, priority 2011, dated 2018).
Like-named read-outs stand apart in the source and are kept apart here.

Legend:
[1] = tested on: Ba/F3-Flt3-transfected cells in the presence of 10 ng/ml murine IL3; experiment: Ba/F3-Flt3 (plus IL3) cellular proliferation counterscreen, Alamar Blue; type: cell-based; conditions: Mus musculus, read-out: BAF3-FLT3 (PLUS IL3) 384 well pIC50 (converted)
Experimental: Ba/F3-Flt3 (Minus IL3 or Plus IL3) (Cellular Proliferation Assay)
(§1) In a 384 well plate, 100 nl of compound dilution in DMSO was sprayed before adding 50 μl cell culture medium (phenol red free RPMI-1640, 10% FBS, 2 mM L-Glutamine and 50 μg/ml Gentamycin) containing 20000 cells per well of Ba/F3-Flt3-transfected cells. Cells were put in an incubator at 37° C. and 5% CO2. After 24 hours, 10 μl of Alamar Blue solution (0.5 mM K3Fe(CN)6, 0.5 mM KaFe(CN)6, 0.15 mM Resazurin and 100 mM Phosphate Buffer) was added to the wells, incubated for 4 hours at 37° C. and 5% CO2 before RFU's (Relative Fluorescence Units) (ex. 540 nm., em. 590 nm.) were measured in a flurorescence plate reader.
As a counterscreen the same experiment was performed in the presence of 10 ng/ml murine IL3.
as §1, with “a 96” for “a 384”, “plate, 180” for “plate, 100 nl of compound dilution in DMSO was sprayed before adding 50”, “containing 10000” for “containing 20000”, “Ba/F3-Flt3-transfected cells were pipette and 20 μl of compound dilution in DMSO was added.” for “Ba/F3-Flt3-transfected cells.”, “hours, 40” for “hours, 10”

FGFR2 (h) = FGFR2 (h) (Homo sapiens, UniProt P21802); experiment: FGFR2 (enzymatic assay), TR-FRET; type: biochemical; conditions: read-out: FGFR 2 pIC50 (converted)
FGFR2 (h), sequence (P21802 22-821): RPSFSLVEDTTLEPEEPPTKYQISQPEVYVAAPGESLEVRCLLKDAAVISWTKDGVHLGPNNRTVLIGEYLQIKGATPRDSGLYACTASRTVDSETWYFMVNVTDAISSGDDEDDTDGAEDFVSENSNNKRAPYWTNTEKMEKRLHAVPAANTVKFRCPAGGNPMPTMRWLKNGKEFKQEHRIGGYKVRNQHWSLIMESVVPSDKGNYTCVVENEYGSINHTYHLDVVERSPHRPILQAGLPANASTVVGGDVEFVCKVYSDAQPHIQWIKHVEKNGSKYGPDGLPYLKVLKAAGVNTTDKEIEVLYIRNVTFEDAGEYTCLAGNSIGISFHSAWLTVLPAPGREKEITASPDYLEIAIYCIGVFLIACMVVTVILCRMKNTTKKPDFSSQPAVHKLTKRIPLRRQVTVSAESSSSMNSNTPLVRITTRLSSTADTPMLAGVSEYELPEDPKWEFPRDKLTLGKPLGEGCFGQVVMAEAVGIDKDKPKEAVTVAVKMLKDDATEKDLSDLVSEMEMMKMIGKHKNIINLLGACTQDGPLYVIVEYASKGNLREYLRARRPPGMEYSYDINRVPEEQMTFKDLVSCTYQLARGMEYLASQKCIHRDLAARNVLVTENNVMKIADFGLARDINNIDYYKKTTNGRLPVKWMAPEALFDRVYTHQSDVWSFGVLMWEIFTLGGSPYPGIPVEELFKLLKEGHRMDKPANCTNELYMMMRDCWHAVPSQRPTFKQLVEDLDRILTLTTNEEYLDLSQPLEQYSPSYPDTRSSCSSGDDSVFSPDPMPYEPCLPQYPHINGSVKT
Experimental: In a final reaction volume of 30 μL, FGFR2 (h) (150 ng/ml) was incubated with 50 mM HEPES pH 7.5, 6 mM MnCl2, 1 mM DTT, 0.1 mM Na3VO4, 0.01% Triton-X-100, 500 nM Btn-Flt3 and 0.4 μM ATP in the presence of compound (1% DMSO final). […] Time-Resolved Fluorescence Resonance Energy Transfer (TR-FRET) signal (ex340 nm. Em 620 nm, em 655 nm) was measured afterwards and results are expressed in (Relative Fluorescence Units).

FGFR1 (h) = FGFR1 (h) (Homo sapiens, UniProt P11362); experiment: FGFR1 (enzymatic assay), TR-FRET; type: biochemical; conditions: read-out: FGFR 1 pIC50 (converted)
FGFR1 (h), sequence (P11362 22-822): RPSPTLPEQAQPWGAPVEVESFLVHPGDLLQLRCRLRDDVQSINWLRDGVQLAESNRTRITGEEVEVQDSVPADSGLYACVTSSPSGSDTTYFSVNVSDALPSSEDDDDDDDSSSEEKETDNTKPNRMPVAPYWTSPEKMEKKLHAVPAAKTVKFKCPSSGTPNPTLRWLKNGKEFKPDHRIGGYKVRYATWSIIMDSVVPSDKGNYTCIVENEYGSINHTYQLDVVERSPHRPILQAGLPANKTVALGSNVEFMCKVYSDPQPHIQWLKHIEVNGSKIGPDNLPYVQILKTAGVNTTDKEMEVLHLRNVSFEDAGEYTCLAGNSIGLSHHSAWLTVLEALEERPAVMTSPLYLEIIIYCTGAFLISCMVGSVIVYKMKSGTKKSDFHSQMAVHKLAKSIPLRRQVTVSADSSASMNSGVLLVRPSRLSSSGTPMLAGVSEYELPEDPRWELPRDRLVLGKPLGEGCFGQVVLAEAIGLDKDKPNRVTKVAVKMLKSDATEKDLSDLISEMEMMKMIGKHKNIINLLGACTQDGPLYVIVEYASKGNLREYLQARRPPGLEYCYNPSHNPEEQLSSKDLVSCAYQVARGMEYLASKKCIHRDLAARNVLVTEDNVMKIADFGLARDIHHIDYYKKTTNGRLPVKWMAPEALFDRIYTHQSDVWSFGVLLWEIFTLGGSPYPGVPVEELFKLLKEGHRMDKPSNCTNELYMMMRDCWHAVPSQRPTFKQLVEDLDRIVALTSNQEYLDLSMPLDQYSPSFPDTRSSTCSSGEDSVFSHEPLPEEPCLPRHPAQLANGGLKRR
Experimental: In a final reaction volume of 30 μL, FGFR1 (h) (25 ng/ml) was incubated with 50 mM HEPES pH 7.5, 6 mM MnCl2, 1 mM DTT, 0.1 mM Na3VO4, 0.01% Triton-X-100, 500 nM Btn-Flt3 and 5 μM ATP in the presence of compound (1% DMSO final). […] Time-Resolved Fluorescence Resonance Energy Transfer (TR-FRET) signal (ex340 nm. Em 620 nm, em 655 nm) was measured afterwards and results are expressed in RFU (Relative Fluorescence Units).

[2] = target: Ba/F3-FGFR1-transfected cells (Homo sapiens, UniProt P11362); experiment: Ba/F3-FGFR1 (minus IL3) cellular proliferation assay, Alamar Blue; type: cell-based; conditions: for BAF3-FGFR 1 (MIN IL3) 384 well pIC50: minus IL3, 384 well; for BAF3-FGFR 1 (MIN IL3) 96 well pIC50: minus IL3, 96 well
Ba/F3-FGFR1-transfected cells, sequence (P11362 whole entry, change not shown): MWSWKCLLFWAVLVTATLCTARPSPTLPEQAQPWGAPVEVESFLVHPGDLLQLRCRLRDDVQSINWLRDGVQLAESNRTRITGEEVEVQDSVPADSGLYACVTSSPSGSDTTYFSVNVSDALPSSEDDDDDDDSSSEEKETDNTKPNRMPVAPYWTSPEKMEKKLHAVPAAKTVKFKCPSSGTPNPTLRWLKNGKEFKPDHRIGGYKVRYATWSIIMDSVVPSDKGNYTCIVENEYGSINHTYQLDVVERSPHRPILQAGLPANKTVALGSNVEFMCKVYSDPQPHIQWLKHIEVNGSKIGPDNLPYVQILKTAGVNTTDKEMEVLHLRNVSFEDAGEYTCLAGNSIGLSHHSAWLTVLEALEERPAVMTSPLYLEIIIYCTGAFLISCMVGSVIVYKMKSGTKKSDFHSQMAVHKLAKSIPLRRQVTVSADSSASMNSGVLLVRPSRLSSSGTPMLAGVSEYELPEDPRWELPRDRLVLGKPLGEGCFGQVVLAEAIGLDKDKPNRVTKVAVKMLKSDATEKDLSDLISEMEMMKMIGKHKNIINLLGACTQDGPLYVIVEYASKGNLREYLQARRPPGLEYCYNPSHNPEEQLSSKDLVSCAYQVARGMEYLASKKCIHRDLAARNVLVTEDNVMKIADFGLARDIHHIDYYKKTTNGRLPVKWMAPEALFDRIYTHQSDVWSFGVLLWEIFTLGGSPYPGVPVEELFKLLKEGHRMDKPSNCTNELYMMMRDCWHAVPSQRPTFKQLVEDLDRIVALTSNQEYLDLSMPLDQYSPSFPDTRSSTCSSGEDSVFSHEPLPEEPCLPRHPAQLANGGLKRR
Experimental: Ba/F3-FGFR1 (Minus IL3 or Plus IL3) (Cellular Proliferation Assay)
Cells were put in an incubator at 37° C. and 5% CO2. After 24 hours, 10 μl of Alamar Blue solution (0.5 mM K3Fe(CN)6, 0.5 mM KaFe(CN)6, 0.15 mM Resazurin and 100 mM Phosphate Buffer) was added to the wells, incubated for 4 hours at 37° C. and 5% CO2 before RFU's (Relative Fluorescence Units) (ex. 540 nm., em. 590 nm.) were measured in a flurorescence plate reader. […]
as §1, with “a 96” for “a 384”, “plate, 180” for “plate, 100 nl of compound dilution in DMSO was sprayed before adding 50”, “containing 10000” for “containing 20000”, “of Ba/F3-FGFR1-transfected cells were pipette and 20 μl of compound dilution in DMSO was added.” for “of Ba/F3-Flt3-transfected cells.”, “hours, 40” for “hours, 10”

SMILES	IC50 ([1]; plus 10 ng/ml murine IL3) [µM]	IC50 (FGFR2 (h)) [nM]	IC50 (FGFR1 (h)) [nM]	BAF3-FGFR 1 (MIN IL3) 384 well pIC50 [2]	IC50 ([1]; plus IL3, 384 well) [µM]	BAF3-FGFR 1 (MIN IL3) 96 well pIC50 [2]
COCC(CN(c1cc(OC)cc(OC)c1)c1ccc2ncc(-c3cccnc3)nc2c1)OC(C)=O (single isomer, unassigned) [Compound 52]	> 10	91.2	87.1	5.96	–	–
COc1cc(OC)cc(N(CC#Cc2ncccn2)c2ccc3ncc(-c4cccnc4)nc3c2)c1 [Compound 2]	> 10	34.7	83.2	6.8	–	–
COc1cc(OC)cc(N(CCCNCC(F)(F)F)c2ccc3ncc(-c4ccn(C)c4)nc3c2)c1 [Compound 5]	> 10	15.1	6.92	5.99	–	–
COc1cc(OC)cc(N(CCO)c2ccc3ncc(-c4ccc(N5CCOCC5)nc4)nc3c2)c1 [Compound 19]	> 10	10.7	3.89	6.41	–	–
COc1cc(OC)cc(N(CC2CC2)c2ccc3ncc(C#Cc4cncn4C)nc3c2)c1 [Compound 22]	–	95.5	28.2	<5	> 10	–
COc1cc(OC)cc(N(CC2CC2)c2ccc3ncc(C(=O)Nc4cncn4C)nc3c2)c1 [Compound 27]	> 10	~4170	269	<5	–	<5
COc1cc(OC)cc(N(CC2CC2)c2ccc3ncc(-c4ccnc(N5CCN(C)CC5)c4)nc3c2)c1 [Compound 37]	–	95.5	30.2	5.16	7.94	5.4
COc1cc(OC)cc(N(CCO)c2ccc3ncc(-n4cnc(CO)c4)nc3c2)c1 [Compound 38]	> 10	25.7	15.1	6.31	–	–
COc1cc(OC)cc(N(CCCO)c2ccc3ncc(-c4ccnc(C(=O)N5CCOCC5)c4)nc3c2)c1 [Compound 43]	> 10	13.2	15.8	6.28	–	–
COc1cc(OC)cc(N(CCCNCC(=O)O)c2ccc3ncc(-c4ccnc(C(=O)NCCCCN)c4)nc3c2)c1 [Compound 44]	> 10	11	17.4	<5	–	–
COc1cc(OC)cc(N(CC2CC2)c2ccc3ncc(N4CCN(CCO)CC4)nc3c2)c1 [Compound 49]	> 10	398	316	<5	–	–
COc1cc(OC)cc(N(CCN2CCNCC2)c2ccc3ncc(-c4ccc(N)nc4)nc3c2)c1 [Compound 59]	> 10	4.07	3.63	6.22	–	–
COc1cc(OC)cc(N(CC2CC2)c2ccc3ncc(N4CCN(C)CC4)nc3c2)c1 [Compound 64]	–	331	437	<5	> 10	–
COc1cc(OC)cc(N(CCO)c2ccc3ncc(N4CCC(CN)CC4)nc3c2)c1 [Compound 84]	–	91.2	44.7	5.05	–	–
COc1cc(OC)cc(N(CC2CC2)c2ccc3ncc(-c4nnc(C)o4)nc3c2)c1 [Compound 85]	–	380	302	<5	–	–
COc1cc(OC)cc(N(CC2CC2)c2ccc3ncc(-c4ccc5[nH]ccc5c4)nc3c2)c1 [Compound 86]	–	1820	513	<5	–	–
COc1cc(OC)cc(N(CC2CC2)c2ccc3ncc(-c4ccc5c(c4)OCO5)nc3c2)c1 [Compound 87]	–	955	617	<5.4	–	–
COc1cc(OC)cc(N(CC2CC2)c2ccc3ncc(-c4cnc5[nH]ccc5c4)nc3c2)c1 [Compound 88]	–	1150	575	<5	–	–
COc1cc(OC)cc(N(CC2CC2)c2ccc3ncc(-c4cccc(N5CCOCC5)c4)nc3c2)c1 [Compound 92]	–	661	363	<5	–	<5
COc1cc(OC)cc(N(CC2CC2)c2ccc3ncc(C(=O)N4CCC4)nc3c2)c1 [Compound 93]	> 10	> 10000	> 10000	<5	–	<5
COc1cc(OC)cc(N(CC2CC2)c2ccc3ncc(-n4cccn4)nc3c2)c1 [Compound 95]	–	> 10000	1320	<5	–	–
COc1cc(OC)cc(N(CCCO)c2ccc3ncc(-c4ccnc(C(=O)NCCCCCN)c4)nc3c2)c1 [Compound 130]	> 10	8.32	17.4	5.1	–	–
COc1cc(OC)cc(N(CCCNC(C)C)c2ccc3ncc(-c4ccnc(NC(=O)NC(C)C)c4)nc3c2)c1 [Compound 131]	3.63	4.68	2.09	6.44	–	–
COc1cc(OC)cc(N(CCCNCCCO)c2ccc3ncc(-c4ccnc(C(=O)NCCCCN)c4)nc3c2)c1 [Compound 132]	~5.5	8.71	4.37	5.8	–	–
COc1cc(OC)cc(N(CCCO)c2ccc3ncc(-c4ccnc(-c5ccnc(Cl)c5)c4)nc3c2)c1 [Compound 133]	> 10	115	110	<5	–	–
COc1cc(OC)cc(N(CCCO)c2ccc3ncc(-c4cnc(N5CCN(C)CC5)c(C)c4)nc3c2)c1 [Compound 135]	–	6.17	2	6.42	–	–
COc1cc(OC)cc(N(CCCO)c2ccc3ncc(-c4ccnc(Cl)c4)nc3c2)c1 [Compound 136]	> 10	25.7	24	5.63	–	–
COc1cc(OC)cc(N(CCCNC(C)C)c2ccc3ncc(-c4ccnc(NC(=O)OC(C)(C)C)c4)nc3c2)c1 [Compound 137]	–	8.32	3.72	5.75	–	–
COc1cc(OC)cc(N(CCO)c2ccc3ncc(-c4ccnc(C(=O)NCCCCCN)c4)nc3c2)c1 [Compound 138]	–	~31.6	22.9	<5	–	–
COc1cc(OC)cc(N(CCCNC(C)C)c2ccc3ncc(-c4ccnc(N)c4)nc3c2)c1 [Compound 143]	6.61	3.39	1.05	6.56	–	–
